In patent US12083079B2, “Sphingoid compounds for prophylaxis and/or therapy of a viral infection” (priority 2018, dated 2024):

Legend:
HIV-1 JR-CSF = assay: HIV-P24 ELISA in supernatant of infected human T cells; assay type: cell-based; settings: 50 μM, after 7 days
[1] = test system: lymphocytic choriomeningitis virus (LCMV); assay type: cell-based
[2] = test system: rhinovirus strain RV2 (minor strain); assay: Rhinovirus RV2 infection of Hela cells, dead cells by Trypan Blue; assay type: cell-based; settings: added 10 min before or 60 min or 240 min after infection, 4 days
[3] = test system: rhinovirus strain RV14 (major strain); assay: Rhinovirus RV14 infection of Hela cells, dead cells by Trypan Blue; assay type: cell-based; settings: added 10 min before or 60 min or 240 min after infection, 4 days
[4] = Surface sphingosine in nasal mucosa after intranasal application, in situ sphingosine kinase assay; assay type: in vivo; settings: wild-type mice
Protocol: Sphingosine (SPH) was applied into the nose of wild-type mice and the concentration of sphingosine on the epithelial cell surface was determined after 1, 4 and 8 hrs (a.i.: after injection of sphingosine). To this end, 10 μl, of a 10 μM or a 100 μM sphingosine solution was applied into the nostrils of wild-type mice. Controls received the solvent, i.e. octylglucopyranoside at the same concentration used when sphingosine was applied, or were left untreated. Mice were slightly and very briefly anesthetized with ether. For the intranasal application we used a blunt-end 30 g needle that was covered with a thin plastic film. The blunt-ended needle was inserted into the nostrils approximately 2 mm. Mice were sacrificed after the indicated time, the nasal bone was removed, placed on a 30° C. pre-warmed plastic plate and an area of 2 mm×2 mm was immediately incubated with 0.001 units of sphingosine kinase 1 (#6068-SK-010, R&D) in 4 μl of 150 mM sodium acetate (pH 7.4), 1 μM ATP, and 10 μCi [^32P]γATP/sample. Controls were incubated with the same buffer without sphingosine kinase or were left untreated. […] The TLC plates were analyzed with a phosphoimager. Surface sphingosine levels were determined with a standard curve of C18-sphingosine. […]

[5] = test system: epithelial cells of the nose; assay: Dead nasal epithelial cells after intranasal sphingosine (Trypan Blue); assay type: in vivo; settings: wild-type mice, 10 μL of 10 μM or 100 μM solution intranasal; 8 hours or 24 hours
Protocol: Sphingosine was applied into the nose of wild-type mice as in 3.2. 10 μL of a 10 μM or a 100 μM sphingosine (SPH) solution was administered into the nostrils of wild-type mice. Controls received the solvent, i.e. octylglucopyranoside at the same concentration used when sphingosine was applied, or were left untreated. Mice were anesthetized prior to application of sphingosine. Mice were sacrificed after 8 hours or 24 hours, the nasal bone was removed and incubated in Trypsin solution for 10 min to release and isolate epithelial cells. Cells were washed twice in H/S (20 mM HEPES, 132 mM NaCl, 5 mM KCl, 1 mM CaCl2), 0.7 mM MgCl2, 0.8 mM MgSO4, pH 7.4), stained with Trypan Blue (0.2% final concentration) and dead cells were counted in aliquots of 500 cells. Given is the percentage of dead cells±SD from 4 independent experiments each; *p<0.05, ANOVA.

[6] = test system: rhinovirus strain 2 (RV2); assay: Intranasal RV2 infection of wild-type mice, Hela cell death bioassay of nasal bone; assay type: in vivo; settings: 10 μL of 100 μM intranasal, 10 min prior to or 1, 4 or 8 hrs after infection, sacrificed after 24 hrs
Protocol: Mice were infected with 10^3 PFU rhinovirus strain 2 (RV2) in 10 μL PBS. The virus was applied directly into the nose using a blunt ended, plastic coated 30 g needle, that was inserted into the nose approximately 2 mm. Sphingosine (SPH) was applied into the nose of the wild-type mice at a concentration of 100 μM solution in PBS in a volume of 10 μL. Sphingosine was applied either 10 min prior to rhinovirus infection (b.i.) or 1 hr, 4 hrs and 8 hrs after the infection (a.i.). Controls received the solvent, i.e. octylglucopyranoside (OGP) at the same concentration than used when sphingosine was applied, or were left untreated, but infected. Solutions were applied as in 3.2. Mice were sacrificed after 24 hrs, the nasal bone was removed and incubated for 4 days with Hela cells in a 24 well plate. If the nasal epithelial cells are infected, rhinovirus will be released due to the cytopathic effect of the virus and the in vivo infection can then be determined and quantified by measuring cell death of Hela cells as a bioassay. To this end, dead cells were collected, adherent cells were trypsinized, the fractions were combined, washed twice in H/S (20 mM HEPES, 132 mM NaCl, 5 mM KCl, 1 mM CaCl2), 0.7 mM MgCl2, 0.8 mM MgSO4, pH 7.4), stained with Trypan Blue (0.2% final concentration) and dead cells were counted in aliquots of 500 cells as above. […]

RV1b = assay: Binding of sphingosine to RV1b immobilized to agarose beads, remaining sphingosine by kinase assay; set-up: species or system rhinovirus; settings: 250 μM sphingosine in PBS (pH 7.0), 4 hrs at 4° C.
Protocol: As a complement to the above study, RV1b (obtained from ATCC) were immobilized to agarose beads and tested for binding of sphingosine (SPH). To this end, we incubated 1 μg/ml anti-RV1b antibodies with 10^6 CFU RV1b for 1 h at 4° C. in H/S, added 50 μL agarose protein A/G beads (Santa Cruz Inc.), incubated for an additional 1 h at 4° C. and washed the immobilized precipitates 5-times in H/S. We resuspended the beads in 500 μL PBS (pH 7.0) containing 250 μM sphingosine. Samples were incubated for 4 hrs at 4° C., pelleted and aliquots of the supernatants were added to 50 mM HEPES (pH 7.4), 250 mM NaCl, 30 mM MgCl2, 0.001 units sphingosine kinase (R&D), 1 mM ATP and 10 μCi [^32P]γATP. The kinase reaction was performed for 1 hr at 30° C., stopped by addition of 20 μl 1N HCl, 800 μl CHCl3/CH3OH/1N HCl (100:200:1, v/v/v), 240 μl CHCl3 and 2 M KCl. Phases were separated, the lower phase was collected, dried, dissolved in 20 μL of CHCl3:CH3OH (1:1, v/v) and separated on Silica G60 thin layer chromatography (TLC) plates using CHCl3/CH3OH/acetic acid/H2O (90:90:15:5, v/v/v/v). The TLC plates were exposed to radiography films, spots were removed from the plates, and the incorporation of [^32P] into sphingosine measured by liquid scintillation counting. Sphingosine was determined using a standard curve of C18-SPH. […]

rhinovirus 2 (RV2) = assay: RV2 infection of freshly isolated human epithelial cells, Hela cytotoxicity readout; assay type: cell-based; settings: 10 μM or 20 μM, 24 hrs
Protocol: (§1) 10^4 PFU of Rhinovirus 2 or 14 (RV2, RV14) were incubated with freshly isolated human epithelial cells for 24 hrs in the presence of 10 μM or 20 μM sphingosine (SPH) or the corresponding concentration of the solvent octylglucopyranoside (OGP), the cells were pelleted, supernatants completely removed, the cell pellets resuspended in PBS and added to Hela cells. Cells were incubated for 3 days and cytotoxicity as measurement for virus titers was determined. Shown is the mean±SD, n=4, *p<0.001 ANOVA.

rhinovirus 14 (RV14) = assay: RV14 infection of freshly isolated human epithelial cells, Hela cytotoxicity readout; assay type: cell-based; settings: 10 μM or 20 μM, 24 hrs
Protocol: as §1

Hela cells = settings: uninfected Hela cells, 10 μM or 20 μM
[7] = test system: lymphocytic choriomeningitis virus (LCMV); assay type: cell-based; remark: listed apart in the source
[8] = test system: vesicular stomatitis virus (VSV); assay type: cell-based

MP A08
amount of HIV-P24 in the supernatant (HIV-1 JR-CSF): prevents the propagation of HIV

CCCCCCCCCCCCC/C=C/[C@@H](O)[C@@H](N)CO [sphingosine, (2S,3R,4E)-2-amino-4-octadecene-1,3-diol]
virus production (infectious LCMV particles in the supernatant) [1]: inhibits the propagation of LCMV | infection with RV2 (percentage of dead cells) ([2]; 10 μM): prevented the infection | infection with RV2 (percentage of dead cells) ([2]; 20 μM): prevented the infection | infection with RV14 (percentage of dead cells) ([3]; 10 μM): prevented the infection | infection with RV14 (percentage of dead cells) ([3]; 20 μM): prevented the infection | surface sphingosine concentration in nasal mucosa ([4]; 10 μl of 10 μM or 100 μM solution into the nostrils, 1, 4 and 8 hrs): dose-dependent accumulation of sphingosine in the mucosa | surface sphingosine concentration after washing the mucosa in PBS ([4]; washing prior to the in situ kinase assay): reduces sphingosine accumulation | toxic effects (percentage of dead nasal epithelial cells) [5]: no toxic effects on epithelial cells of the nose | infection with RV2 in vivo (percentage of dead Hela cells, bioassay) [6]: prevented | binding of sphingosine to RV1b-coupled agarose beads (remaining sphingosine in the supernatant) (RV1b): efficiently bind sphingosine | infection of human epithelial cells by RV2 (cytotoxicity as measurement for virus titers) (rhinovirus 2 (RV2)): abrogates infection | infection of human epithelial cells by RV14 (cytotoxicity as measurement for virus titers) (rhinovirus 14 (RV14)): abrogates infection | effect of sphingosine itself on the cells (percentage of dead cells) (Hela cells): had no effect on the cells

Oc1ccc(Nc2nc(-c3ccc(Cl)cc3)cs2)cc1 [SKII, 2-(p-hydroxyanilino)-4-(p-chlorophenyl)thiazole]
virus-infected cells by immunofluorescence [7]: inhibits the spreading of the virus

sphingomyelinase
virus production (infectious LCMV particles in the supernatant) [1]: inhibits the propagation of LCMV | number of plaques [8]: inhibits the propagation of VSV
